In patent publication US11384109B2, “Method for separating phenolic acid glucoside compounds from Diaphragma juglandis Fructu” (Jiangnan University, priority 2020, dated 2022):
Marks after values point to notes of the source that are not given here.

Experiments:
[1] = tested on: aging model mice induced by D-galactose; test: Antioxidant effects in subacute aging model mice induced by D-galactose (serum SOD by ELISA, liver MDA by colorimetry); type: in vivo, ICR mice; conditions: 500 mg/kg by gavage for 6 weeks; for Liver MDA / Serum SOD: 150 mg/kg D-galactose s.c., 24 hours after last administration, x ± s, 10 mice per group; for Liver MDA: 10% liver homogenate; for liver MDA content compared with the model group / serum SOD activity compared with the model group: result in words, One-way ANOVA Dunnett test
Excerpt: 1.1 Animals: ICR mice, 6 weeks old, 20-25 g, SPF grade, purchased from Shanghai Slack Experimental Animal Co., Ltd.
1.2 Reagents: D-galactose, purchased from Sigma, USA; malondialdehyde (MDA) kit, purchased from Nanjing Jiancheng Bioengineering Institute; superoxide dismutase (SOD) kit, purchased from Shanghai Aisalai Eliza Biotechnology Co., Ltd.
2.1 Animal grouping and administration: after one week of adaptive feeding, mice were randomly divided into 5 groups, 10 mice each group. The administration group was gavaged with Compounds 1-3, 500 mg/kg per compound. The blank group and aging model group were gavaged with equal volume of normal saline for 6 weeks. At the same time, 150 mg/kg D-galactose was injected subcutaneously into the aging model group and the administration group respectively to establish a subacute aging model of mice. The blank control group was injected with equal volume of normal saline for 6 weeks.
2.2 Sample preparation and index determination: 24 hours after the last administration, blood was collected from the eyeballs of mice; after dislocation for execution, the liver was removed, cleaned and ground at low temperature to prepare 10% tissue homogenate, which was centrifuged at 3500 rpm and 4° C. for 10 min, and supernatant was taken and stored at −20° C. The content of MDA in the liver tissue was determined by colorimetry, and the activity of SOD in serum was determined by ELISA.
2.3 Statistical analysis: the results were expressed as x±s. The results were analyzed by One-way ANOVA Dunnett test using SPSS 20 software.

[2] = Solubility description of the isolated compounds

2,6-dihydroxynaphthyl-O-β-D-glucopyranoside [Compound 3]
Liver MDA [1]: 0.183 ± 0.051^a nmol/mg tissue | Serum SOD [1]: 103.44 ± 15.75^a U/mL | liver MDA content compared with the model group [1]: significantly (P<0.05) lower than that in the model group | serum SOD activity compared with the model group [1]: significantly (P<0.05) higher than that in the model group | solubility in chloroform [2]: insoluble | solubility in water, ethanol and the like [2]: soluble

COc1ccc(O)c(O[C@@H]2O[C@H](CO)[C@@H](O)[C@H](O)[C@H]2O)c1 [Compound 1, 2-hydroxyl-5-methoxylphenyl-O-β-D-glucopyranoside]
Liver MDA [1]: 0.211 ± 0.019^a nmol/mg tissue | Serum SOD [1]: 94.90 ± 8.07^a U/mL | liver MDA content compared with the model group [1]: significantly (P<0.05) decreased | serum SOD activity compared with the model group [1]: significantly (P<0.05) increased | solubility in chloroform [2]: insoluble | solubility in water, ethanol and the like [2]: soluble

OC[C@H]1O[C@@H](Oc2ccc3cc(O)ccc3c2O[C@@H]2O[C@H](CO)[C@@H](O)[C@H](O)[C@H]2O)[C@H](O)[C@@H](O)[C@@H]1O [Compound 2, 6-hydroxylnaphthyl-1,2-di-O-β-D-glucopyranoside]
Liver MDA [1]: 0.198 ± 0.037^a nmol/mg tissue | Serum SOD [1]: 97.06 ± 10.18^a U/mL | liver MDA content compared with the model group [1]: significantly (P<0.05) decreased | serum SOD activity compared with the model group [1]: significantly (P<0.05) increased
